Data on 31 compounds can be found in patent publication US7449447B2, “Peptidomimetic NS3-serine protease inhibitors of hepatitis C virus” (priority 2003, dated 2008).

*1 amine or outer side, *2 acyl side, *3 side chain or, on linkers, in order; H or OH if unused. Where a SMILES comes first, the peptide text is derived from it. [ ]: non-standard residue; d: D form. The star is where a group is joined. Pro(3R,4S-CMe2) = CC1(C)[C@@H]2[C@@H](C(=O)O)NC[C@@H]21; Abu(4,4-F2) = N[C@@H](CC(F)F)C(=O)O; Phg = N[C@H](C(=O)O)c1ccccc1; Tle = CC(C)(C)[C@H](N)C(=O)O; Boc = CC(C)(C)OC(=O)*; CO = O=C([*:1])[*:2]; X2 = CC1(N*)CCCCC1

The first test deals with T1, HCV NS3/NS4a serine protease (Hepatitis C virus genotype 1b, UniProt P26663).
T1 construct: amino terminus of the NS3 protease domain (amino acids 3-181) with a tetrapeptide linker; made in house; host or cells: E. coli
T1 sequence (P26663 1013-1207, looked up, natural form): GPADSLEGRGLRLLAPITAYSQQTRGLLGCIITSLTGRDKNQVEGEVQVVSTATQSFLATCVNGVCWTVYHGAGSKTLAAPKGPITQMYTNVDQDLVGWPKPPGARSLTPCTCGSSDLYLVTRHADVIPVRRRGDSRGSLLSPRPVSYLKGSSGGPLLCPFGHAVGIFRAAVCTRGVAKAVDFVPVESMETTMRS
The experiment in a line: Spectrophotometric assay for HCV protease inhibitory activity (chromogenic ester substrates). The class given is biochemical, hepatitis C virus (strain 1b). Conditions: Ki Rating, Table 2; single chain NS4A21-32-GSGS-NS3 3-181 protease, 30° C., pH 6.5. Here is the method: Spectrophotometric Assay: Spectrophotometric assays for the HCV serine protease were performed on the inventive compounds by following the procedure described by R. Zhang et al., Analytical Biochemistry, 270 (1999) 268-275, the disclosure of which is incorporated herein by reference. The assay based on the proteolysis of chromogenic ester substrates is suitable for the continuous monitoring of HCV NS3 protease activity.
HCV NS3 protease (strain 1b) and its NS4A cofactor were constructed as a recombinant single chain protein. The NS4A cofactor domain (amino acid residues 21-32) was fused in frame to the amino terminus of the NS3 protease domain (amino acids 3-181) with a tetrapeptide linker. This NS4A 21-32-GSGS-NS33-181 construct was then expressed in E. coli and purified to >90% homogeneity. Kinetic parameters were determined and found to be the same as that of the full length NS31-631/NS4A1-54 protein complex produced in the baculovirus system (D. L. Sali et al, Biochemistry, 37 (1998) 3392-340). The details of the cloning, expression, purification and kinetic analysis of the of the single chain recombinant protease have been previously described (S. S. Taremi, et al. Protein Science. 7 (1998) 2143-2149.
Protein concentrations were determined by the Biorad dye method using recombinant HCV protease standards previously quantified by amino acid analysis. Prior to assay initiation, the enzyme storage buffer (50 mM sodium phosphate pH 8.0, 300 mM NaCl, 10% glycerol, 0.05% lauryl maltoside and 10 mM DTT) was exchanged for the assay buffer (25 mM MOPS pH 6.5, 300 mM NaCl, 10% glycerol, 0.05% lauryl maltoside, 5 μM EDTA and 5 μM DTT) utilizing a Biorad Bio-Spin P-6 prepacked column.
Protease Assay: HCV protease assays were performed at 30° C. using a 200 μl reaction mix in a 96-well microtiter plate. Assay buffer conditions (25 mM MOPS pH 6.5, 300 mM NaCl, 10% glycerol, 0.05% lauryl maltoside, 5 μM EDTA and 5 μM DTT) were optimized for the NS3/NS4A heterodimer (D. L. Sali et al, ibid.)). Typically, 100 μl mixtures of buffer, substrate and inhibitor were placed in wells and allowed to preincubate at 30° C. for approximately 3 minutes. One hundred μls of pre-warmed protease (30° C.) in assay buffer, was then used to initiate the reaction to produce a final concentration of 1.3 nM HCV). The Substrate cleavage by the protease was monitored over 60 minutes by measuring the release of the phenylazophenol (PAP) product at an absorbance of 370 nm with a continuous read every 30 seconds using a SpectraMax Plus microtiter plate reader (Molecular Devices, Sunnyvale, Calif.). Background hydrolysis of the substrate was subtracted. Inhibitors were tested over a range of concentrations (final DMSO concentration 4%)
Evaluation of Inhibitors The inhibition constants (Ki) for the competitive inhibitors were determined experimentally at fixed concentrations of enzyme and substrate by plotting vo/vi vs. inhibitor concentration ([I]o) according to the rearranged Michaelis-Menten equation for competitive inhibition kinetics: vo/vi=1+[I]o/(Ki(1+[S]o/Km)), where vo is the uninhibited initial velocity, vi is the initial velocity in the presence of inhibitor at any given inhibitor concentration ([I]o) and [S]o is the substrate concentration used. The resulting data were fitted using linear regression and the resulting slope, 1/(Ki(1+[S]o/Km), was used to calculate the Ki value.
Consider `COC(=O)[C@H](CC(F)F)NC(=O)[C@@H]1[C@H]2CC(C)(C)O[C@H]2CN1C(=O)[C@@H](NC(=O)OCc1ccccc1)C1CCCCC1` [Example 170], for which the Ki is more than 500 nM.

`CN(C)C(=O)[C@@H](NC(=O)CNC(=O)[C@H](CC(F)F)NC(=O)[C@@H]1[C@@H]2[C@H](CN1C(=O)[C@@H](NC(=O)OC(C)(C)C)C(C)(C)C)C2(C)C)c1ccccc1` [Example 171] (Boc-[Tle][Pro(3R,4S-CMe2)][Abu(4,4-F2)]G[Phg]-NMe2): the Ki was more than 500 nM.

In the case of `CN(C)C(=O)[C@@H](NC(=O)CNC(=O)[C@H](CC(F)F)NC(=O)[C@@H]1[C@@H]2[C@H](CN1C(=O)[C@@H](NC(=O)NC1(C)CCCCC1)C(C)(C)C)C2(C)C)c1ccccc1` [Example 172] ({X2-CO}-[Tle][Pro(3R,4S-CMe2)][Abu(4,4-F2)]G[Phg]-NMe2), the Ki was more than 500 nM.

For `COC(=O)c1ccc(CCNC(=O)[C@H](CC(F)F)NC(=O)[C@@H]2[C@H]3CC(C)(C)O[C@H]3CN2C(=O)[C@@H](NC(=O)OCc2ccccc2)C2CCCCC2)cc1` [Example 173], the Ki was more than 500 nM.

For the compound `CC(C)[C@H](NC(=O)N[C@H](C(=O)N1C[C@H]2[C@@H]([C@H]1C(=O)N[C@@H](CC(F)F)C(=O)NCCC(=O)OC(C)(C)C)C2(C)C)C(C)(C)C)C(=O)OC(C)(C)C` [Example 174], the Ki was more than 500 nM.

Staying with this test, now noted: Ki, Table 3; rating; single chain NS4A21-32-GSGS-NS3 3-181 protease, 30° C., pH 6.5.
`CN(C[C@@H](NC(=O)N[C@H](C(=O)N1C[C@H]2[C@@H]([C@H]1C(=O)N[C@@H](CC(F)F)C(=O)NCCc1ccc(S(N)(=O)=O)cc1)C2(C)C)C(C)(C)C)C(C)(C)C)S(C)(=O)=O` [Example 201]: the Ki is less than 100 nM.

Regarding `CN(C[C@@H](NC(=O)N[C@H](C(=O)N1C[C@H]2[C@@H]([C@H]1C(=O)N[C@@H](CC(F)F)C(=O)NCCc1cccc(Cl)c1)C2(C)C)C(C)(C)C)C(C)(C)C)S(C)(=O)=O` [Example 202], the Ki was less than 100 nM.

`CN(C[C@@H](NC(=O)N[C@H](C(=O)N1C[C@H]2[C@@H]([C@H]1C(=O)N[C@@H](CC(F)F)C(=O)NC1CC1)C2(C)C)C(C)(C)C)C(C)(C)C)S(C)(=O)=O` [Example 203]: the Ki is more than 500 nM.

Take `CN(C[C@@H](NC(=O)N[C@H](C(=O)N1C[C@H]2[C@@H]([C@H]1C(=O)N[C@@H](CC(F)F)C(=O)NCCC#N)C2(C)C)C(C)(C)C)C(C)(C)C)S(C)(=O)=O` [Example 204]: the Ki is more than 500 nM.

As to `CN(C[C@@H](NC(=O)N[C@H](C(=O)N1C[C@H]2[C@@H]([C@H]1C(=O)N[C@@H](CC(F)F)C(=O)NCC1CC1)C2(C)C)C(C)(C)C)C(C)(C)C)S(C)(=O)=O` [Example 205], the Ki was more than 500 nM.

For `CC(C)CNC(=O)[C@H](CC(F)F)NC(=O)[C@@H]1[C@@H]2[C@H](CN1C(=O)[C@@H](NC(=O)N[C@H](CN(C)S(C)(=O)=O)C(C)(C)C)C(C)(C)C)C2(C)C` [Example 206], the Ki was more than 500 nM.

On to `CN(C[C@@H](NC(=O)N[C@H](C(=O)N1C[C@H]2[C@@H]([C@H]1C(=O)N[C@@H](CC(F)F)C(=O)NC1CCCC1)C2(C)C)C(C)(C)C)C(C)(C)C)S(C)(=O)=O` [Example 207], for which the Ki is more than 500 nM.

As for `CC(C)CCNC(=O)[C@H](CC(F)F)NC(=O)[C@@H]1[C@@H]2[C@H](CN1C(=O)[C@@H](NC(=O)N[C@H](CN(C)S(C)(=O)=O)C(C)(C)C)C(C)(C)C)C2(C)C` [Example 208], the Ki is more than 500 nM.

Consider `CN(C[C@@H](NC(=O)N[C@H](C(=O)N1C[C@H]2[C@@H]([C@H]1C(=O)N[C@@H](CC(F)F)C(=O)NCC(C)(C)C)C2(C)C)C(C)(C)C)C(C)(C)C)S(C)(=O)=O` [Example 209], for which the Ki was more than 500 nM.

Consider `CN(C[C@@H](NC(=O)N[C@H](C(=O)N1C[C@H]2[C@@H]([C@H]1C(=O)N[C@@H](CC(F)F)C(=O)NCC1CCCO1)C2(C)C)C(C)(C)C)C(C)(C)C)S(C)(=O)=O` (stereo partly shown) [Example 210], for which the Ki is more than 500 nM.

With `CCOCCCNC(=O)[C@H](CC(F)F)NC(=O)[C@@H]1[C@@H]2[C@H](CN1C(=O)[C@@H](NC(=O)N[C@H](CN(C)S(C)(=O)=O)C(C)(C)C)C(C)(C)C)C2(C)C` [Example 211], the Ki was more than 500 nM.

Turning to `CN(C[C@@H](NC(=O)N[C@H](C(=O)N1C[C@H]2[C@@H]([C@H]1C(=O)N[C@@H](CC(F)F)C(=O)NCc1cccs1)C2(C)C)C(C)(C)C)C(C)(C)C)S(C)(=O)=O` [Example 212], the Ki is more than 500 nM.

For `CN(C[C@@H](NC(=O)N[C@H](C(=O)N1C[C@H]2[C@@H]([C@H]1C(=O)N[C@@H](CC(F)F)C(=O)NCC1CCCCC1)C2(C)C)C(C)(C)C)C(C)(C)C)S(C)(=O)=O` [Example 213], the Ki is more than 500 nM.

For `CC(C)OCCCNC(=O)[C@H](CC(F)F)NC(=O)[C@@H]1[C@@H]2[C@H](CN1C(=O)[C@@H](NC(=O)N[C@H](CN(C)S(C)(=O)=O)C(C)(C)C)C(C)(C)C)C2(C)C` [Example 214], the inhibition constant Ki was more than 500 nM.

For `CC(NC(=O)[C@H](CC(F)F)NC(=O)[C@@H]1[C@@H]2[C@H](CN1C(=O)[C@@H](NC(=O)N[C@H](CN(C)S(C)(=O)=O)C(C)(C)C)C(C)(C)C)C2(C)C)c1ccccc1` (stereo partly shown) [Example 215], the Ki is more than 500 nM.

As for `CN(C[C@@H](NC(=O)N[C@H](C(=O)N1C[C@H]2[C@@H]([C@H]1C(=O)N[C@@H](CC(F)F)C(=O)NCCc1cccs1)C2(C)C)C(C)(C)C)C(C)(C)C)S(C)(=O)=O` [Example 216], the Ki was less than 100 nM.

On to `CN(C[C@@H](NC(=O)N[C@H](C(=O)N1C[C@H]2[C@@H]([C@H]1C(=O)N[C@@H](CC(F)F)C(=O)NC1CCc3ccccc31)C2(C)C)C(C)(C)C)C(C)(C)C)S(C)(=O)=O` (stereo partly shown) [Example 217], for which the Ki was more than 500 nM.

On to `CN(C[C@@H](NC(=O)N[C@H](C(=O)N1C[C@H]2[C@@H]([C@H]1C(=O)N[C@@H](CC(F)F)C(=O)NC1Cc3ccccc3C1)C2(C)C)C(C)(C)C)C(C)(C)C)S(C)(=O)=O` [Example 218], for which the Ki was more than 500 nM.

As for `CC(CNC(=O)[C@H](CC(F)F)NC(=O)[C@@H]1[C@@H]2[C@H](CN1C(=O)[C@@H](NC(=O)N[C@H](CN(C)S(C)(=O)=O)C(C)(C)C)C(C)(C)C)C2(C)C)c1ccccc1` (stereo partly shown) [Example 219], the Ki was less than 100 nM.

For `CN(C[C@@H](NC(=O)N[C@H](C(=O)N1C[C@H]2[C@@H]([C@H]1C(=O)N[C@@H](CC(F)F)C(=O)NCCCc1ccccc1)C2(C)C)C(C)(C)C)C(C)(C)C)S(C)(=O)=O` [Example 220], the Ki was more than 500 nM.

Regarding `CN(C[C@@H](NC(=O)N[C@H](C(=O)N1C[C@H]2[C@@H]([C@H]1C(=O)N[C@@H](CC(F)F)C(=O)NCCOc1ccccc1)C2(C)C)C(C)(C)C)C(C)(C)C)S(C)(=O)=O` [Example 221], the Ki was more than 500 nM.

For the compound `COc1ccccc1CNC(=O)[C@H](CC(F)F)NC(=O)[C@@H]1[C@@H]2[C@H](CN1C(=O)[C@@H](NC(=O)N[C@H](CN(C)S(C)(=O)=O)C(C)(C)C)C(C)(C)C)C2(C)C` [Example 222], the Ki is more than 500 nM.

Turning to `CN(C[C@@H](NC(=O)N[C@H](C(=O)N1C[C@H]2[C@@H]([C@H]1C(=O)N[C@@H](CC(F)F)C(=O)NCCCN1CCCC1=O)C2(C)C)C(C)(C)C)C(C)(C)C)S(C)(=O)=O` [Example 223], the Ki was more than 500 nM.

Take `CN(C[C@@H](NC(=O)N[C@H](C(=O)N1C[C@H]2[C@@H]([C@H]1C(=O)N[C@@H](CC(F)F)C(=O)NC1CCCc3ccccc31)C2(C)C)C(C)(C)C)C(C)(C)C)S(C)(=O)=O` (stereo partly shown) [Example 224]: the Ki was more than 500 nM.

As for `CC(CCc1ccccc1)NC(=O)[C@H](CC(F)F)NC(=O)[C@@H]1[C@@H]2[C@H](CN1C(=O)[C@@H](NC(=O)N[C@H](CN(C)S(C)(=O)=O)C(C)(C)C)C(C)(C)C)C2(C)C` (stereo partly shown) [Example 225], the Ki is more than 500 nM.

On to `CC(NC(=O)[C@H](CC(F)F)NC(=O)[C@@H]1[C@@H]2[C@H](CN1C(=O)[C@@H](NC(=O)N[C@H](CN(C)S(C)(=O)=O)C(C)(C)C)C(C)(C)C)C2(C)C)c1ccc(Cl)cc1` (stereo partly shown) [Example 226], for which the Ki was more than 500 nM.

The term Ki denotes a measure of affinity in units of concentration, obtained from inhibition or displacement.
